Measured values taken from paper PMC8880564, “Design, Synthesis, and Biological Evaluation of a Novel VEGFR-2 Inhibitor Based on a 1,2,5-Oxadiazole-2-Oxide Scaffold with MAPK Signaling Pathway Inhibition” (Pharmaceuticals, 2022).

Columns and labels:
HepG2 cells = assay: Wound-healing assay; assay type: cell-based, human; conditions: HepG2, serum-free media, 24 h, vs DMSO-treated cells
Procedure: A wound-healing assay is a simple and economical assay used to investigate the anti-metastatic activity of compounds. Cells were treated with compound 12b in serum-free media for 24 h. After that, the cells were fixed with ice-cold methanol and air-dried, then stained with 0.5% crystal violet.

HCT-116 = assay: NCI-60 one-dose SRB screening; assay type: cell-based; conditions: Homo sapiens, HCT-116, Colon Cancer, 10 µM one dose, 48 h, read-out: growth percentage
SF-295 = assay: NCI-60 one-dose SRB screening; assay type: cell-based; conditions: Homo sapiens, SF-295, CNS Cancer, 10 µM one dose, 48 h, read-out: growth percentage
MALME-3M = assay: NCI-60 one-dose SRB screening; assay type: cell-based; conditions: Homo sapiens, Melanoma, 10 µM one dose, 48 h, read-out: growth percentage
HCT-15 = assay: NCI-60 one-dose SRB screening; assay type: cell-based; conditions: Homo sapiens, HCT-15, Colon Cancer, 10 µM one dose, 48 h, read-out: growth percentage
PC-3 = assay: NCI-60 one-dose SRB screening; assay type: cell-based; conditions: Homo sapiens, PC-3, Prostate Cancer, 10 µM one dose, 48 h, read-out: growth percentage
786-0 = assay: NCI-60 one-dose SRB screening; assay type: cell-based; conditions: Homo sapiens, 786-0, Renal Cancer, 10 µM one dose, 48 h, read-out: growth percentage
OVCAR-5 = assay: NCI-60 one-dose SRB screening; assay type: cell-based; conditions: Homo sapiens, OVCAR-5, Ovarian Cancer, 10 µM one dose, 48 h, read-out: growth percentage
MDA-MB-435 = assay: NCI-60 one-dose SRB screening; assay type: cell-based; conditions: Homo sapiens, MDA-MB-435, Melanoma, 10 µM one dose, 48 h, read-out: growth percentage
OVCAR-4 = assay: NCI-60 one-dose SRB screening; assay type: cell-based; conditions: Homo sapiens, OVCAR-4, Ovarian Cancer, 10 µM one dose, 48 h, read-out: growth percentage
A549/ATCC = assay: NCI-60 one-dose SRB screening; assay type: cell-based; conditions: Homo sapiens, Non-Small Cell Lung Cancer, 10 µM one dose, 48 h, read-out: growth percentage
TK-10 = assay: NCI-60 one-dose SRB screening; assay type: cell-based; conditions: Homo sapiens, TK-10, Renal Cancer, 10 µM one dose, 48 h, read-out: growth percentage
HL-60(TB) = assay: NCI-60 one-dose SRB screening; assay type: cell-based; conditions: Homo sapiens, Leukemia, 10 µM one dose, 48 h, read-out: growth percentage
SK-MEL-5 = assay: NCI-60 one-dose SRB screening; assay type: cell-based; conditions: Homo sapiens, SK-MEL-5, Melanoma, 10 µM one dose, 48 h, read-out: growth percentage
UACC-257 = assay: NCI-60 one-dose SRB screening; assay type: cell-based; conditions: Homo sapiens, UACC-257, Melanoma, 10 µM one dose, 48 h, read-out: growth percentage
HOP-92 = assay: NCI-60 one-dose SRB screening; assay type: cell-based; conditions: Homo sapiens, HOP-92, Non-Small Cell Lung Cancer, 10 µM one dose, 48 h, read-out: growth percentage
SK-MEL-28 = assay: NCI-60 one-dose SRB screening; assay type: cell-based; conditions: Homo sapiens, SK-MEL-28, Melanoma, 10 µM one dose, 48 h, read-out: growth percentage

Structure (SMILES) | rate of wound healing (HepG2 cells) | activity at 10 µM (HCT-116) [%] | activity at 10 µM (SF-295) [%] | activity at 10 µM (MALME-3M) [%] | activity at 10 µM (HCT-15) [%] | activity at 10 µM (PC-3) [%] | activity at 10 µM (786-0) [%] | activity at 10 µM (OVCAR-5) [%] | activity at 10 µM (MDA-MB-435) [%] | activity at 10 µM (OVCAR-4) [%] | activity at 10 µM (A549/ATCC) [%] | activity at 10 µM (TK-10) [%] | activity at 10 µM (HL-60(TB)) [%] | activity at 10 µM (SK-MEL-5) [%] | activity at 10 µM (UACC-257) [%] | activity at 10 µM (HOP-92) [%] | activity at 10 µM (SK-MEL-28) [%]
[O-][n+]1onc(-c2ccccc2)c1CNc1ccc(Nc2nc(C(F)(F)F)nc3c2cnn3-c2ccc(Br)cc2)cc1 [12b, 3-(((4-((1-(4-bromophenyl)-6-(trifluoromethyl)-1H-pyrazolo[3,4-d]pyrimidin-4-yl)amino)phenyl)amino)methyl)-4-phenyl-1,2,5-oxadiazole 2-oxide] | decreased the rate of wound healing | 46.7 | 54.5 | 93.5 | 38.1 | 48.2 | 67.2 | 77.2 | 72.8 | 78.5 | 64.4 | 86.8 | 79.8 | 86 | 102 | 68.4 | 89.2
O=c1[nH]c(CCl)nc2c1cnn2-c1ccccc1 [13a] | – | 94.9 | 110 | -38.5 | 99.9 | 105 | 122 | 111 | 95.7 | 100 | 98.5 | 154 | 109 | 107 | 99 | 101 | -89.8
Cc1nn(-c2ccccc2)c2nc(CCl)[nH]c(=O)c12 [13b] | – | 24.9 | 109 | 2.09 | 90.6 | 102 | 122 | 110 | 99 | 90.9 | 97.7 | 63.2 | 33.1 | 110 | 98.8 | 117 | 105
O=c1[nH]c(CNc2ccc(NCc3c(-c4ccccc4)no[n+]3[O-])cc2)nc2c1cnn2-c1ccccc1 [14a, 3-(((4-(((4-oxo-1-phenyl-4,5-dihydro-1H-pyrazolo[3,4-d]pyrimidin-6-yl)methyl)amino)phenyl)amino)methyl)-4-phenyl-1,2,5-oxadiazole 2-oxide] | – | 49.6 | 71.8 | 63.6 | 71.2 | 63.3 | 102 | 64.3 | 70.7 | 94.5 | 63.8 | 102 | 63.1 | 85.3 | 39 | 85.4 | 77.2
Cc1nn(-c2ccccc2)c2nc(CNc3ccc(NCc4c(-c5ccccc5)no[n+]4[O-])cc3)[nH]c(=O)c12 [14b, 3-(((4-(((3-methyl-4-oxo-1-phenyl-4,5-dihydro-1H-pyrazolo[3,4-d]pyrimidin-6-yl)methyl)amino)phenyl)amino)methyl)-4-phenyl-1,2,5-oxadiazole 2-oxide] | – | 79 | 103 | 74.1 | 80.6 | 77.7 | 125 | 95.4 | 91.6 | 102 | 74.3 | 137 | 93.7 | 108 | 90.1 | 93.2 | 99.2
Cc1nn(-c2ccc(Br)cc2)c2nc(CNc3ccc(NCc4c(-c5ccccc5)no[n+]4[O-])cc3)[nH]c(=O)c12 [14c, 3-(((4-(((1-(4-bromophenyl)-3-methyl-4-oxo-4,5-dihydro-1H-pyrazolo[3,4-d]pyrimidin-6-yl)methyl)amino)phenyl)amino)methyl)-4-phenyl-1,2,5-oxadiazole 2-oxide] | – | 93.8 | 115 | 92.5 | 97.3 | 96.6 | 119 | 110 | 101 | 127 | 97.4 | 132 | 103 | 104 | 101 | 108 | 103
Nc1ccc(NCc2c(-c3ccccc3)no[n+]2[O-])cc1 [compound 11, 3-(((4-aminophenyl)amino)methyl)-4-phenyl-1,2,5-oxadiazole 2-oxide] | – | 98.4 | 117 | 100 | 104 | 95.1 | 140 | 116 | 90.2 | 118 | 95.1 | 156 | 95.5 | 112 | 99.2 | 116 | 101
